The values below come from patent US12655142B2 (Merck Patent GmbH, priority 2019, dated 2026).

One assay deals with T1, c-Kit(V654A) (Homo sapiens, UniProt P10721, V654A).
T1 construct: recombinant human c-Kit, amino acids 544-end containing the V654A mutation; GST (N)
The assay is described as follows: c-Kit(V654A) assay (33P-ATP filter binding kinase assay). The class given is biochemical. The following applies: recombinant human c-Kit aa 544-end V654A, ATP 200 μM. The gist of the method: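 Radiometric filter-binding read-out: substrate 33P incorporation counted by scintillation after P30 filtermat washes in 75 mM phosphoric acid and methanol. Enzyme: N-GST recombinant human c-Kit aa 544-end carrying V654A.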

Assay [1] deals with T2, GIST430/654 cell line expressing mutated constitutively active cKIT receptor tyrosine kinase (Δ560-576 deletion and V654A point mutation) (Homo sapiens, UniProt P10721, DEL560-576/V654A).
T2 construct: endogenous in cells; host or cells: GIST430/654 cells
T2 sequence (P10721 with tags, fused parts or gaps DEL560-576/V654A): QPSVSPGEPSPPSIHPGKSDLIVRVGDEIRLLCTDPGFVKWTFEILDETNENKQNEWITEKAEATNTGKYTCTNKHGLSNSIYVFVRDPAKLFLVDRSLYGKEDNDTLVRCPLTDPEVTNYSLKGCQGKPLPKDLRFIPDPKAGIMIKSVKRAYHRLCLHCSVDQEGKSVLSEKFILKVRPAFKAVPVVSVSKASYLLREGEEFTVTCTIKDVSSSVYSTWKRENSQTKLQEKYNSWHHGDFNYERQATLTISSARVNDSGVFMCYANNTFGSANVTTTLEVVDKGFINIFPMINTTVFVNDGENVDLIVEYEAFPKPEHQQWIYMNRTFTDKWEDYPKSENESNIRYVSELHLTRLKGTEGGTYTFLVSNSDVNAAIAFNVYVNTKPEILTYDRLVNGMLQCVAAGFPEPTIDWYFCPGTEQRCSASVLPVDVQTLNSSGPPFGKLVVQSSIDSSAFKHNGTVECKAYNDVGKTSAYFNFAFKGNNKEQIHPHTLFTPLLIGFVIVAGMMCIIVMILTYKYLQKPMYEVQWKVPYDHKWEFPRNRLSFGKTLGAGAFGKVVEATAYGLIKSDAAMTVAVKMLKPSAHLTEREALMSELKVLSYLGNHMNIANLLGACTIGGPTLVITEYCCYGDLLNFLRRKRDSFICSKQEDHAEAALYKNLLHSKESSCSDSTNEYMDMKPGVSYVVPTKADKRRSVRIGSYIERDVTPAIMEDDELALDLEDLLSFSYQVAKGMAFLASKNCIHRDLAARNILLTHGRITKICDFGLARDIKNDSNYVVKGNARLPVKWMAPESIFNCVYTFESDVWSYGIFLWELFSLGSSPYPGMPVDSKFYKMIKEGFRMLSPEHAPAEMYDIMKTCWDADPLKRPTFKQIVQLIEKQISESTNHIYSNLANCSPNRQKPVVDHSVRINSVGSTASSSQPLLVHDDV
Put plainly: Cellular cKIT autophosphorylation (phospho-Y307-cKIT, Luminex bead assay) in GIST430/654 cells. The class given is cell-based. Conditions: compounds 45 min, read-out: GIST 430/654 IC50. In short, it runs like this: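 GIST430 (Δ560-576) and imatinib-resistant GIST430/654 (plus V654A; grown with 100 nM imatinib) cells were plated in IMDM/15% FCS and treated next day with serially diluted compound for 45 min. Lysates were captured on anti-total-cKIT Luminex beads overnight at 4 °C and probed for phospho-Y307. IC50 was taken from percent of 0.3% DMSO control.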

T1 sequence (P10721 544-976 V654A): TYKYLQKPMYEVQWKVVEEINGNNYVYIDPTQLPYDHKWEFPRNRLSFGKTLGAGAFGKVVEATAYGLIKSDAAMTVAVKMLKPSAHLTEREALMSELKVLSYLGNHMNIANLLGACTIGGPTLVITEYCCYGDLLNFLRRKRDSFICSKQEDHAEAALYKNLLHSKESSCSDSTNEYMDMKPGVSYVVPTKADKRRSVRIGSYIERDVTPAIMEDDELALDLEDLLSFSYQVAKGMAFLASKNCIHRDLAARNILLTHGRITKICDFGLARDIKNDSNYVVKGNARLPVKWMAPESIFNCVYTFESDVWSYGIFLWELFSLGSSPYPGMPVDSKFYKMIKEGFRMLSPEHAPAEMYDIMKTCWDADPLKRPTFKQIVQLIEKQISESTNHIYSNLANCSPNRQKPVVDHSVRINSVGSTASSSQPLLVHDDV

Turning to `Cn1cc(-c2ccc(CNc3cc(-c4cnc5cc(OCC(C)(C)N6CCOCC6)ccn45)ncn3)cc2)cn1` [A107, {6-[7-(2-methyl-2-morpholin-4-yl-propoxy)-imidazo[1,2-a]pyridin-3-yl]-pyrimidin-4-yl}-[4-(1-methyl-1H-pyrazol-4-yl)-benzyl]-amine], the IC50 at c-Kit(V654A) worked out at 0.013 µM; in assay [1], 0.12 µM.

Turning to `Cn1ncc(-c2ccc(CNc3cc(-c4cnc5cc(OCC(C)(C)N6CCOCC6)ccn45)ncn3)cc2)n1` [A109, {6-[7-(2-methyl-2-morpholin-4-yl-propoxy)-imidazo[1,2-a]pyridin-3-yl]-pyrimidin-4-yl}-[4-(2-methyl-2H-[1,2,3]triazol-4-yl)-benzyl]-amine], the IC50 on c-Kit(V654A) worked out at 0.0075 µM; in assay [1], 0.079 µM.

`Cn1cc(-c2ccc(CNc3cc(-c4cnc5cc(OCCc6nccn6C)ccn45)ncn3)cc2)cn1` [A111, (6-{7-[2-(1-methyl-1H-imidazol-2-yl)-ethoxy]imidazo[1,2-a]pyridin-3-yl}-pyrimidin-4-yl)-[4-(1-methyl-1H-pyrazol-4-yl)-benzyl]-amine]: the IC50 stood at 0.0079 µM on c-Kit(V654A) and 0.063 µM in assay [1].

As for `Cn1ncc(-c2ccc(CNc3cc(-c4cnc5cc(OCc6cccnc6)ccn45)ncn3)cc2)n1` [A112, [4-(2-methyl-2H-[1,2,3]triazol-4-yl)-benzyl]-{6-[7-(pyridin-3-ylmethoxy)-imidazo[1,2-a]pyridin-3-yl]-pyrimidin-4-yl}-amine], the IC50 at c-Kit(V654A) worked out at 0.04 µM; in assay [1] it was 0.26 µM.

For `Cn1cc(-c2ccc(CNc3cc(-c4cnc5cc(OCc6nccn6C)ccn45)ncn3)cc2)cn1` [A113, {6-[7-(1-methyl-1H-imidazol-2-ylmethoxy)-imidazo[1,2-a]pyridin-3-yl]-pyrimidin-4-yl}-[4-(1-methyl-1H-pyrazol-4-yl)-benzyl]-amine], the IC50 on c-Kit(V654A) was found to be 0.014 µM; in assay [1], 0.62 µM.

Consider `CN1CCC(CCOc2ccn3c(-c4cc(NCc5ccc(-c6cnn(C)c6)cc5)ncn4)cnc3c2)C1` (stereo not drawn) [A115, [4-(1-methyl-1H-pyrazol-4-yl)-benzyl]-(6-{7-[2-(1-methyl-pyrrolidin-3-yl)-ethoxy]-imidazo[1,2-a]pyridin-3-yl}-pyrimidin-4-yl)-amine], for which the values for the IC50 (on c-Kit(V654A); in assay [1]) were 0.0037 µM and 0.049 µM, respectively.

`CN1CCC(CCOc2ccn3c(-c4cc(NCc5ccc(-c6cnn(C)n6)cc5)ncn4)cnc3c2)C1` (stereo not drawn) [A116, (6-{7-[2-(1-methyl-pyrrolidin-3-yl)-ethoxy]-imidazo[1,2-a]pyridin-3-yl}-pyrimidin-4-yl)-[4-(2-methyl-2H-[1,2,3]triazol-4-yl)-benzyl]-amine]: the IC50 was 0.0016 µM at c-Kit(V654A) and 0.048 µM in assay [1].

On to `CN1CCO[C@@H](COc2ccn3c(-c4cc(NCc5ccc(-c6cnn(C)c6)cc5)ncn4)cnc3c2)C1` [A117, {6-[7-((R)-4-methyl-morpholin-2-ylmethoxy)-imidazo[1,2-a]pyridin-3-yl]-pyrimidin-4-yl}-[4-(1-methyl-1H-pyrazol-4-yl)-benzyl]-amine], for which the figures for the IC50 (at c-Kit(V654A); in assay [1]) were 0.006 µM and 0.03 µM, respectively.

As for `CN1CCO[C@H](COc2ccn3c(-c4cc(NCc5ccc(-c6cnn(C)c6)cc5)ncn4)cnc3c2)C1` [A118, {6-[7-((S)-4-methyl-morpholin-2-ylmethoxy)-imidazo[1,2-a]pyridin-3-yl]-pyrimidin-4-yl}-[4-(1-methyl-1H-pyrazol-4-yl)-benzyl]-amine], the figures for the IC50 (on c-Kit(V654A); in assay [1]) were 0.0047 µM and 0.04 µM, respectively.

Take `Cn1ncc(-c2ccc(CNc3cc(-c4cnc5cc(OCCC6CCN(C7COC7)C6)ccn45)ncn3)cc2)n1` (stereo not drawn) [A119, [4-(2-methyl-2H-[1,2,3]triazol-4-yl)-benzyl]-(6-{7-[2-(1-oxetan-3-yl-pyrrolidin-3-yl)-ethoxy]-imidazo[1,2-a]pyridin-3-yl}-pyrimidin-4-yl)-amine]: the IC50 at c-Kit(V654A) was 0.0034 µM; in assay [1] it was 0.062 µM.

Regarding `CN1CCO[C@@H](COc2ccn3c(-c4cc(NCc5ccc(-c6cnn(C)n6)cc5)ncn4)cnc3c2)C1` [A121, {6-[7-((R)-4-methyl-morpholin-2-ylmethoxy)-imidazo[1,2-a]pyridin-3-yl]-pyrimidin-4-yl}-[4-(2-methyl-2H-[1,2,3]triazol-4-yl)-benzyl]-amine], the IC50 at c-Kit(V654A) is 0.0036 µM; in assay [1], 0.034 µM.

For the compound `CN1CCO[C@H](COc2ccn3c(-c4cc(NCc5ccc(-c6cnn(C)n6)cc5)ncn4)cnc3c2)C1` [A122, {6-[7-((S)-4-methyl-morpholin-2-ylmethoxy)-imidazo[1,2-a]pyridin-3-yl]-pyrimidin-4-yl}-[4-(2-methyl-2H-[1,2,3]triazol-4-yl)-benzyl]-amine], the results for the IC50 (on c-Kit(V654A); in assay [1]) were 0.026 µM and 0.26 µM, respectively.

For the compound `Cn1cc(-c2ccc(CNc3cc(-c4cnc5cc(OCCC6CCN(C7COC7)C6)ccn45)ncn3)cc2)cn1` (stereo not drawn) [A123, [4-(1-methyl-1H-pyrazol-4-yl)-benzyl]-(6-{7-[2-(1-oxetan-3-yl-pyrrolidin-3-yl)-ethoxy]-imidazo[1,2-a]pyridin-3-yl}-pyrimidin-4-yl)-amine], the IC50 on c-Kit(V654A) came to 0.0058 µM; in assay [1] it was 0.056 µM.

For the compound `CN1CCOC[C@@H]1COc1ccn2c(-c3cc(NCc4ccc(-c5cnn(C)c5)cc4)ncn3)cnc2c1` [A124, N-{[4-(1-methyl-1H-pyrazol-4-yl)phenyl]methyl}-6-(7-{[(3R)-4-methylmorpholin-3-yl]methoxy}imidazo[1,2-a]pyridin-3-yl)pyrimidin-4-amine], the IC50 on c-Kit(V654A) was 0.0074 µM; in assay [1], 0.053 µM.

Consider `CN1CCOC[C@H]1COc1ccn2c(-c3cc(NCc4ccc(-c5cnn(C)c5)cc4)ncn3)cnc2c1` [A125, N-{[4-(1-methyl-1H-pyrazol-4-yl)phenyl]methyl}-6-(7-{[(3S)-4-methylmorpholin-3-yl]methoxy}imidazo[1,2-a]pyridin-3-yl)pyrimidin-4-amine], for which the IC50 at c-Kit(V654A) was determined as 0.023 µM; in assay [1] it was 0.21 µM.

In the case of `Cn1ncc(-c2ccc(CNc3cc(-c4cnc5cc(OCCc6cccnc6)ccn45)ncn3)cc2)n1` [A126, [4-(2-methyl-2H-[1,2,3]triazol-4-yl)-benzyl]-{6-[7-(2-pyridin-3-yl-ethoxy)-imidazo[1,2-a]pyridin-3-yl]-pyrimidin-4-yl}-amine], the IC50 is 0.016 µM on c-Kit(V654A) and 0.14 µM in assay [1].

As for `Cn1cc(-c2ccc(CNc3cc(-c4cnc5cc(OCCN6CC7CC7C6)ccn45)ncn3)cc2)cn1` (stereo not drawn) [A127, (6-{7-[2-(3-aza-bicyclo[3.1.0]hex-3-yl)-ethoxy]-imidazo[1,2-a]pyridin-3-yl}-pyrimidin-4-yl)-[4-(1-methyl-1H-pyrazol-4-yl)-benzyl]-amine], the IC50 was 0.0067 µM at c-Kit(V654A) and 0.1 µM in assay [1].

Turning to `Cn1ncc(-c2ccc(CNc3cc(-c4cnc5cc(OCCN6CC7CC7C6)ccn45)ncn3)cc2)n1` (stereo not drawn) [A128, (6-{7-[2-(3-aza-bicyclo[3.1.0]hex-3-yl)-ethoxy]-imidazo[1,2-a]pyridin-3-yl}-pyrimidin-4-yl)-[4-(2-methyl-2H-[1,2,3]triazol-4-yl)-benzyl]-amine], the IC50 came to 0.0099 µM at c-Kit(V654A) and 0.13 µM in assay [1].

On to `CN1CCC(CCOc2ccn3c(-c4cc(NCc5ccc(-c6cnn(C)c6)cc5)ncn4)cnc3c2)CC1` [A129, (6-{7-[2-(1-methyl-piperidin-4-yl)-ethoxy]-imidazo[1,2-a]pyridin-3-yl}-pyrimidin-4-yl)-[4-(1-methyl-1H-pyrazol-4-yl)-benzyl]-amine], for which the results for the IC50 (at c-Kit(V654A); in assay [1]) were 0.0061 µM and 0.062 µM, respectively.

As to `CN1CCC(CCOc2ccn3c(-c4cc(NCc5ccc(-c6cnn(C)n6)cc5)ncn4)cnc3c2)CC1` [A130, (6-{7-[2-(1-methyl-piperidin-4-yl)-ethoxy]-imidazo[1,2-a]pyridin-3-yl}-pyrimidin-4-yl)-[4-(2-methyl-2H-[1,2,3]triazol-4-yl)-benzyl]-amine], the IC50 came to 0.0035 µM on c-Kit(V654A) and 0.04 µM in assay [1].

As to `CN(C)CCCOc1ccn2c(-c3cc(NCc4ccc(-c5cnn(C)c5)cc4)ncn3)cnc2c1` [A132, {6-[7-(3-dimethylamino-propoxy)-imidazo[1,2-a]pyridin-3-yl]-pyrimidin-4-yl}-[4-(1-methyl-1H-pyrazol-4-yl)-benzyl]-amine], the IC50 came out at 0.005 µM at c-Kit(V654A) and 0.043 µM in assay [1].

In the case of `Cn1ncc(-c2ccc(CNc3cc(-c4cnc5cc(OCCCO)ccn45)ncn3)cc2)n1` [A134, 3-(3-{6-[4-(2-methyl-2H-[1,2,3]triazol-4-yl)-benzylamino]-pyrimidin-4-yl}-imidazo[1,2-a]pyridin-7-yloxy)-propan-1-ol], the IC50 at c-Kit(V654A) is 0.0046 µM; in assay [1], 0.052 µM.

On to `CN(C)CCCOc1ccn2c(-c3cc(NCc4ccc(-c5cnn(C)n5)cc4)ncn3)cnc2c1` [A135, {6-[7-(3-dimethylamino-propoxy)-imidazo[1,2-a]pyridin-3-yl]-pyrimidin-4-yl}-[4-(2-methyl-2H-[1,2,3]triazol-4-yl)-benzyl]-amine], for which the IC50 at c-Kit(V654A) came out at 0.002 µM; in assay [1], 0.21 µM.

On to `Cn1cc(-c2ccc(CNc3cc(-c4cnc5cc(OCCN6CCCC(F)(F)C6)ccn45)ncn3)cc2)cn1` [A136, 6-{7-[2-(3,3-difluoropiperidin-1-yl)ethoxy]imidazo[1,2-a]pyridin-3-yl}-N-{[4-(1-methyl-1H-pyrazol-4-yl)phenyl]methyl}pyrimidin-4-amine], for which the IC50 came out at 0.01 µM at c-Kit(V654A) and 0.15 µM in assay [1].
